Results reported in PMC9241943, “LcCCL28-25, Derived from Piscine Chemokine, Exhibits Antimicrobial Activity against Gram-Negative and Gram-Positive Bacteria In Vitro and In Vivo” (Microbiology Spectrum, 2022).
Values after ≈ are worked out from the molar mass of the structure shown. Residues, ends and D or L forms follow the SMILES beside them.

What was measured:
P. aeruginosa FRD1 = type: cell-based, Pseudomonas aeruginosa; settings: FRD1, 2 h
Experimental: (§1) The MIC assays were performed as previously described ([43]). Briefly, peptides were plated in a 2-fold dilution series (50 μL/well) of Mueller-Hinton broth (MHB) in Costar 96-well cell culture plates (Corning, NY, USA). Three repeats were set for each concentration. E. coli ATCC 25922, A. hydrophila ATCC 7966, P. aeruginosa PAO1, P. aeruginosa FRD1, S. aureus ATCC 25923, S. agalactiae ATCC 13813, S. pneumoniae ATCC 49619, methicillin-resistant S. aureus ATCC 43300, and methicillin-resistant S. aureus USA300 were cultured in Luria-Bertani (LB) medium, while K. pneumoniae CMCC46117 was cultured in tryptic soy broth (TSB) medium. Incubation was done at 37°C and 150 × g for 12 h. Bacteria were transferred to fresh MHB at a ratio of 1% (vol/vol) and incubated to reach a logarithmic growth phase. Then, 50 μL of a bacterial suspension at 4 × 10^6 CFU/mL was added to each well. […]

[1] = system: Aeromonas hydrophila ATCC 7966; type: cell-based; settings: ATCC 7966, 2 h
Experimental: as §1

[2] = system: Escherichia coli ATCC 25922; type: cell-based; settings: ATCC 25922, 2 h
Experimental: as §1

[3] = system: Klebsiella pneumoniae CMCC46117; type: cell-based; settings: CMCC46117, 2 h
Experimental: as §1

[4] = system: Pseudomonas aeruginosa PAO1; type: cell-based; settings: PAO1, 2 h
Experimental: as §1

[5] = system: Staphylococcus aureus ATCC 25923; type: cell-based; settings: ATCC 25923, 2 h
Experimental: as §1

[6] = system: Streptococcus agalactiae ATCC 13813; type: cell-based; settings: ATCC 13813, 2 h
Experimental: as §1

[7] = system: Streptococcus pneumoniae ATCC 49619; type: cell-based; settings: ATCC 49619, 2 h
Experimental: as §1

[8] = system: Methicillin-resistant S. aureus ATCC 43300; type: cell-based, Staphylococcus aureus; settings: ATCC 43300, 2 h
Experimental: as §1

[9] = system: Methicillin-resistant S. aureus USA300; type: cell-based, Staphylococcus aureus; settings: USA300, 2 h
Experimental: as §1

E. coli ATCC 25922 = assay: SYTOX green membrane permeability assay; type: cell-based, Escherichia coli; settings: E. coli ATCC 25922, 5 μM SYTOX green, read every 1 min
Experimental: The SYTOX green staining assay was performed to assess peptide-associated membrane damage ([47], [52]). E. coli ATCC 25922 and S. aureus ATCC 25923 cells in the mid-logarithmic phase were collected, washed thrice, and resuspended (5 × 10^7 CFU/mL) in buffer B (10 mM Tris-HCl, pH 7.4, at 25°C). The bacterial suspensions were mixed with 5 μM SYTOX green and incubated for 15 min at room temperature in the dark. Then, the mixtures were added to black, clear-bottom 96-well plates at a density of 100 μL/well. After peptide addition, SYTOX green uptake was monitored using an EnSpire multimode plate reader (PerkinElmer, Singapore) with an excitation wavelength of 485 nm and an emission wavelength of 520 nm. Each measurement interval was 1 min, totaling 30 to 60 times. Melittin was used as the positive control, while bovine serum albumin (BSA) was the negative control.

[10] = system: Staphylococcus aureus USA300; settings: S. aureus USA300
Experimental: The MIC assays were performed as previously described ([43]). Briefly, peptides were plated in a 2-fold dilution series (50 μL/well) of Mueller-Hinton broth (MHB) in Costar 96-well cell culture plates (Corning, NY, USA). Three repeats were set for each concentration. E. coli ATCC 25922, A. hydrophila ATCC 7966, P. aeruginosa PAO1, P. aeruginosa FRD1, S. aureus ATCC 25923, S. agalactiae ATCC 13813, S. pneumoniae ATCC 49619, methicillin-resistant S. aureus ATCC 43300, and methicillin-resistant S. aureus USA300 were cultured in Luria-Bertani (LB) medium, while K. pneumoniae CMCC46117 was cultured in tryptic soy broth (TSB) medium. Incubation was done at 37°C and 150 × g for 12 h. Bacteria were transferred to fresh MHB at a ratio of 1% (vol/vol) and incubated to reach a logarithmic growth phase. Then, 50 μL of a bacterial suspension at 4 × 10^6 CFU/mL was added to each well. After incubation at 37°C for 22 ± 2 h, turbidity was measured using an EnSpire multimode plate reader (PerkinElmer, Singapore) at 595 nm.

Compound	MIC (P. aeruginosa FRD1) [µg/mL]	MIC [1] [µg/mL]	MIC [2] [µg/mL]	MIC [3] [µg/mL]	MIC [4] [µg/mL]	MIC [5] [µg/mL]	MIC [6] [µg/mL]	MIC [7] [µg/mL]	MIC [8] [µg/mL]	MIC [9] [µg/mL]	SYTOX green fluorescence intensity (E. coli ATCC 25922)	MIC in 6 μM NH4Cl ([10]; 6 μM NH4Cl) [µg/mL]	MIC in 1 mM MgCl2 ([10]; 1 mM MgCl2) [µg/mL]	MIC in 2.5 mM CaCl2 ([10]; 2.5 mM CaCl2) [µg/mL]	MIC in 4.5 mM KCl ([10]; 4.5 mM KCl) [µg/mL]	MIC in 150 mM NaCl ([10]; 150 mM NaCl) [µg/mL]	MIC in MS at concn 10% ([10]; 10% mouse serum) [µg/mL]	MIC in MS at concn 20% ([10]; 20% mouse serum) [µg/mL]	MIC in MS at concn 40% ([10]; 40% mouse serum) [µg/mL]	MIC in Control ([10]; control, bacteria treated with peptide only) [µg/mL]
CC[C@H](C)[C@H](NC(=O)[C@H](C)NC(=O)[C@H](CCCCN)NC(=O)[C@H](CCSC)NC(=O)[C@H](CCCCN)NC(=O)[C@H](CC(C)C)NC(=O)[C@@H]1CCCN1C(=O)[C@H](C)N)C(=O)N[C@@H](CC(C)C)C(=O)N[C@@H](CCC(=O)O)C(=O)N[C@H](C(=O)N[C@H](C(=O)N[C@@H](Cc1c[nH]cn1)C(=O)N[C@@H](CCCNC(=N)N)C(=O)N[C@@H](CCCNC(=N)N)C(=O)N[C@@H](CCSC)C(=O)N[C@@H](CCCCN)C(=O)N[C@@H](CCC(N)=O)C(=O)N[C@@H](CC(N)=O)C(=O)N[C@@H](CCCCN)C(=O)N[C@@H](CCSC)C(=O)N[C@@H](CCCCN)C(=O)N[C@@H](C)C(=O)N[C@@H](C)C(=O)N[C@@H](Cc1ccccc1)C(=O)O)C(C)C)[C@@H](C)CC [smCCL27b-25] (H-APLKMKAILEIVHRRMKQNKMKAAF-OH; N-terminus and C-terminus assumed)	25.00 (≈ 8.46 µM)	>50.00	50.00 (≈ 16.9 µM)	>50.00	50.00 (≈ 16.9 µM)	25.00 (≈ 8.46 µM)	25.00 (≈ 8.46 µM)	25.00 (≈ 8.46 µM)	>50.00	25.00 (≈ 8.46 µM)	increased rapidly within 20 min	–	–	–	–	–	–	–	–	–
CC[C@H](C)[C@H](NC(=O)CN)C(=O)NCC(=O)N[C@@H](C)C(=O)N[C@H](C(=O)N[C@@H](CC(C)C)C(=O)N[C@@H](CCCCN)C(=O)N[C@H](C(=O)N[C@@H](CC(C)C)C(=O)N[C@H](C(=O)N[C@H](C(=O)NCC(=O)N[C@@H](CC(C)C)C(=O)N1CCC[C@H]1C(=O)N[C@@H](C)C(=O)N[C@@H](CC(C)C)C(=O)N[C@H](C(=O)N[C@@H](CO)C(=O)N[C@@H](Cc1c[nH]c2ccccc12)C(=O)N[C@H](C(=O)N[C@@H](CCCCN)C(=O)N[C@@H](CCCNC(=N)N)C(=O)N[C@@H](CCCCN)C(=O)N[C@@H](CCCNC(=N)N)C(=O)N[C@@H](CCC(N)=O)C(=O)N[C@@H](CCC(N)=O)C(N)=O)[C@@H](C)CC)[C@@H](C)CC)[C@@H](C)O)[C@@H](C)O)C(C)C)C(C)C [Melittin]	–	–	–	–	–	–	–	–	–	–	–	6.25 (≈ 2.2 µM)	6.25 (≈ 2.2 µM)	6.25 (≈ 2.2 µM)	6.25 (≈ 2.2 µM)	6.25 (≈ 2.2 µM)	25.00 (≈ 8.78 µM)	50.00 (≈ 17.6 µM)	200.00 (≈ 70.3 µM)	6.25 (≈ 2.2 µM)
CSCC[C@H](NC(=O)[C@H](CCCNC(=N)N)NC(=O)[C@H](CCCCN)NC(=O)[C@H](CCSC)NC(=O)[C@H](CC(C)C)NC(=O)[C@H](CCCCN)NC(=O)[C@H](CCC(N)=O)NC(=O)[C@H](CC(C)C)NC(=O)[C@H](Cc1ccccc1)NC(=O)[C@H](CCC(N)=O)NC(=O)[C@H](CCC(=O)O)NC(=O)[C@H](CCSC)NC(=O)[C@H](CCCCN)NC(=O)[C@@H]1CCCN1C(=O)[C@@H](NC(=O)[C@H](C)N)[C@@H](C)O)C(=O)N[C@@H](C)C(=O)N[C@@H](CCCNC(=N)N)C(=O)N[C@@H](CC(C)C)C(=O)N[C@@H](CCCCN)C(=O)N[C@@H](C)C(=O)N[C@@H](CO)C(=O)N[C@@H](C)C(=O)N[C@H](C(=O)O)C(C)C [drCCL27b-24] (H-ATPKMEQFLQKLMKRMARLKASAV-OH; N-terminus and C-terminus assumed)	25.00 (≈ 9 µM)	>50.00	25.00 (≈ 9 µM)	>50.00	25.00 (≈ 9 µM)	25.00 (≈ 9 µM)	25.00 (≈ 9 µM)	25.00 (≈ 9 µM)	25.00 (≈ 9 µM)	25.00 (≈ 9 µM)	fluorescence trends similar to the trends in E. coli cells treated with lcCCL28-25	–	–	–	–	–	–	–	–	–

The next lines start with results.

MIC (P. aeruginosa FRD1) [µg/mL]	MIC [1] [µg/mL]	MIC [2] [µg/mL]	MIC [3] [µg/mL]	MIC [4] [µg/mL]	MIC [5] [µg/mL]	MIC [6] [µg/mL]	MIC [7] [µg/mL]	MIC [8] [µg/mL]	MIC [9] [µg/mL]	Compound	SYTOX green fluorescence intensity (E. coli ATCC 25922)	MIC in 6 μM NH4Cl ([10]; 6 μM NH4Cl) [µg/mL]	MIC in 1 mM MgCl2 ([10]; 1 mM MgCl2) [µg/mL]	MIC in 2.5 mM CaCl2 ([10]; 2.5 mM CaCl2) [µg/mL]	MIC in 4.5 mM KCl ([10]; 4.5 mM KCl) [µg/mL]	MIC in 150 mM NaCl ([10]; 150 mM NaCl) [µg/mL]	MIC in MS at concn 10% ([10]; 10% mouse serum) [µg/mL]	MIC in MS at concn 20% ([10]; 20% mouse serum) [µg/mL]	MIC in MS at concn 40% ([10]; 40% mouse serum) [µg/mL]	MIC in Control ([10]; control, bacteria treated with peptide only) [µg/mL]
25.00 (≈ 6.69 µM)	25.00 (≈ 6.69 µM)	12.50 (≈ 3.34 µM)	25.00 (≈ 6.69 µM)	25.00 (≈ 6.69 µM)	12.50 (≈ 3.34 µM)	12.50 (≈ 3.34 µM)	25.00 (≈ 6.69 µM)	12.50 (≈ 3.34 µM)	12.5 (≈ 3.34 µM)	CC[C@H](C)[C@H](NC(=O)[C@H](CC(=O)O)NC(=O)[C@H](CCCCN)NC(=O)[C@H](Cc1ccccc1)NC(=O)[C@@H](NC(=O)[C@@H](NC(=O)[C@H](CCC(N)=O)NC(=O)[C@H](CC(=O)O)NC(=O)[C@@H](N)C(C)C)[C@@H](C)O)C(C)C)C(=O)N[C@@H](Cc1c[nH]c2ccccc12)C(=O)N[C@@H](Cc1c[nH]c2ccccc12)C(=O)N[C@@H](CCCNC(=N)N)C(=O)N[C@@H](CCSC)C(=O)N[C@@H](CCCCN)C(=O)N[C@@H](CCC(N)=O)C(=O)N[C@@H](Cc1c[nH]c2ccccc12)C(=O)N[C@@H](CCCCN)C(=O)N[C@@H](CCC(N)=O)C(=O)N[C@@H](CCCNC(=N)N)C(=O)N[C@H](C(=O)N[C@@H](CCCCN)C(=O)N[C@@H](CCCCN)C(=O)N[C@@H](CCCNC(=N)N)C(=O)N[C@@H](C)C(=O)N[C@@H](C)C(=O)N[C@@H](CCCCN)C(=O)N[C@@H](Cc1ccc(O)cc1)C(=O)N[C@@H](CC(N)=O)C(=O)N[C@H](C(=O)O)C(C)C)C(C)C [trCCL28-29] (H-VDQTVFKDIWWRMKQWKQRVKKRAAKYNV-OH; N-terminus and C-terminus assumed)	increased rapidly within 20 min	–	–	–	–	–	–	–	–	–
25.00 (≈ 8.21 µM)	>50.00	25.00 (≈ 8.21 µM)	>50.00	25.00 (≈ 8.21 µM)	12.50 (≈ 4.1 µM)	25.00 (≈ 8.21 µM)	25.00 (≈ 8.21 µM)	25.00 (≈ 8.21 µM)	25.00 (≈ 8.21 µM)	CC[C@H](C)[C@H](NC(=O)[C@H](CCCCN)NC(=O)[C@H](CCSC)NC(=O)[C@H](C)NC(=O)[C@H](CC(C)C)NC(=O)[C@H](Cc1c[nH]cn1)NC(=O)[C@H](CCCNC(=N)N)NC(=O)[C@H](CCCCN)NC(=O)[C@H](CCCCN)NC(=O)[C@H](CCCCN)NC(=O)[C@H](CCSC)NC(=O)[C@H](CC(C)C)NC(=O)[C@H](CC(C)C)NC(=O)[C@H](CC(=O)O)NC(=O)[C@H](CC(C)C)NC(=O)[C@H](Cc1c[nH]cn1)NC(=O)[C@H](CCCCN)NC(=O)[C@H](CCCCN)NC(=O)[C@@H](NC(=O)[C@H](CCCNC(=N)N)NC(=O)[C@@H]1CCCN1C(=O)[C@H](Cc1c[nH]cn1)NC(=O)[C@H](C)N)[C@@H](C)CC)C(=O)N[C@@H](C)C(=O)N[C@@H](C)C(=O)N1CCC[C@H]1C(=O)O [chCCL27a-26] (H-AHPRIKKHLDLLMKKKRHLAMKIAAP-OH; N-terminus and C-terminus assumed)	fluorescence trends similar to the trends in E. coli cells treated with lcCCL28-25	–	–	–	–	–	–	–	–	–
